Assay results from patent US9737535B2, “Methods for treating cancer using TOR kinase inhibitor combination therapy comprising administering substituted pyrazino[2,3-b]pyrazines” (Signal Pharmaceuticals, LLC, priority 2014, dated 2017).

System: BT-20
Experiment: Anti-proliferation assay (ATPLite), Chalice synergy score
Assay type: cell-based
Set-up: scale not given here
Conditions: Compound 1 in combination with the named second active agent, 72 h, mean of n = 3 experiments in triplicate
Excerpt: (§1) Cells were thawed from a liquid nitrogen preserved state.
(§2) The calculation for synergy score is provided below.
(§3) If T≧V0:100*[1−(T−V0)/(V−V0)]

SMILES	Synergy score
O=C(NC(NC(=S)Nc1ccc(F)c([N+](=O)[O-])c1)C(Cl)(Cl)Cl)C(c1ccccc1)c1ccccc1 (centres unmarked) [CGK733]	0.72
COc1cc2nccc(Oc3ccc(NC(=O)C4(C(=O)Nc5ccc(F)cc5)CC4)cc3)c2cc1OC [XL184]	3.67
CCN(CCO)CCCOc1ccc2c(Nc3cc(CC(=O)Nc4cccc(F)c4)[nH]n3)ncnc2c1 [AZD1152-HQPA (Barasertib)]	6.90
O=C(/C=C/c1cccnc1)NCCCCC1CCN(C(=O)c2ccccc2)CC1 [FK-866]	0.30
CNC(=O)c1cc(Oc2ccc(NC(=O)Nc3ccc(Cl)c(C(F)(F)F)c3)cc2)ccn1 [Sorafenib]	1.16

System: HCC-1187
Experiment: as above
Assay type: cell-based
Set-up: scale not given here
Conditions: Compound 1 in combination with the named second active agent, 72 h, mean of n = 3 experiments in triplicate
Excerpt: as §1, §2, §3

SMILES	Synergy score
O=C(NC(NC(=S)Nc1ccc(F)c([N+](=O)[O-])c1)C(Cl)(Cl)Cl)C(c1ccccc1)c1ccccc1 (centres unmarked) [CGK733]	2.01
COc1cc2nccc(Oc3ccc(NC(=O)C4(C(=O)Nc5ccc(F)cc5)CC4)cc3)c2cc1OC [XL184]	1.29
CCN(CCO)CCCOc1ccc2c(Nc3cc(CC(=O)Nc4cccc(F)c4)[nH]n3)ncnc2c1 [AZD1152-HQPA (Barasertib)]	6.69
O=C(/C=C/c1cccnc1)NCCCCC1CCN(C(=O)c2ccccc2)CC1 [FK-866]	0.25

System: HCC-1500
Experiment: as above
Assay type: cell-based
Set-up: scale not given here
Conditions: Compound 1 in combination with the named second active agent, 72 h, mean of n = 3 experiments in triplicate
Excerpt: as §1, §2, §3

SMILES	Synergy score
O=C(NC(NC(=S)Nc1ccc(F)c([N+](=O)[O-])c1)C(Cl)(Cl)Cl)C(c1ccccc1)c1ccccc1 (centres unmarked) [CGK733]	0.55
COc1cc2nccc(Oc3ccc(NC(=O)C4(C(=O)Nc5ccc(F)cc5)CC4)cc3)c2cc1OC [XL184]	1.20
CCN(CCO)CCCOc1ccc2c(Nc3cc(CC(=O)Nc4cccc(F)c4)[nH]n3)ncnc2c1 [AZD1152-HQPA (Barasertib)]	5.73
O=C(/C=C/c1cccnc1)NCCCCC1CCN(C(=O)c2ccccc2)CC1 [FK-866]	1.15
CNC(=O)c1cc(Oc2ccc(NC(=O)Nc3ccc(Cl)c(C(F)(F)F)c3)cc2)ccn1 [Sorafenib]	0.69

System: BT-474
Experiment: as above
Assay type: cell-based
Conditions: Compound 1 in combination with the named second active agent, 72 h, mean of n = 3 experiments in triplicate
Excerpt: as §1, §2, §3

SMILES	Synergy score
COc1cc2nccc(Oc3ccc(NC(=O)C4(C(=O)Nc5ccc(F)cc5)CC4)cc3)c2cc1OC [XL184]	1.51
CCN(CCO)CCCOc1ccc2c(Nc3cc(CC(=O)Nc4cccc(F)c4)[nH]n3)ncnc2c1 [AZD1152-HQPA (Barasertib)]	1.51
O=C(/C=C/c1cccnc1)NCCCCC1CCN(C(=O)c2ccccc2)CC1 [FK-866]	0.60
CNC(=O)c1cc(Oc2ccc(NC(=O)Nc3ccc(Cl)c(C(F)(F)F)c3)cc2)ccn1 [Sorafenib]	2.32

System: BT-549
Experiment: as above
Assay type: cell-based
Conditions: Compound 1 in combination with the named second active agent, 72 h, mean of n = 3 experiments in triplicate
Excerpt: as §1, §2, §3

SMILES	Synergy score
O=C(NC(NC(=S)Nc1ccc(F)c([N+](=O)[O-])c1)C(Cl)(Cl)Cl)C(c1ccccc1)c1ccccc1 (centres unmarked) [CGK733]	1.74
COc1cc2nccc(Oc3ccc(NC(=O)C4(C(=O)Nc5ccc(F)cc5)CC4)cc3)c2cc1OC [XL184]	0.52
O=C(/C=C/c1cccnc1)NCCCCC1CCN(C(=O)c2ccccc2)CC1 [FK-866]	0.11
CNC(=O)c1cc(Oc2ccc(NC(=O)Nc3ccc(Cl)c(C(F)(F)F)c3)cc2)ccn1 [Sorafenib]	0.00

System: HCC-1428
Experiment: as above
Assay type: cell-based
Conditions: Compound 1 in combination with the named second active agent, 72 h, mean of n = 3 experiments in triplicate
Excerpt: as §1, §2, §3

SMILES	Synergy score
O=C(NC(NC(=S)Nc1ccc(F)c([N+](=O)[O-])c1)C(Cl)(Cl)Cl)C(c1ccccc1)c1ccccc1 (centres unmarked) [CGK733]	0.82
COc1cc2nccc(Oc3ccc(NC(=O)C4(C(=O)Nc5ccc(F)cc5)CC4)cc3)c2cc1OC [XL184]	1.19
CCN(CCO)CCCOc1ccc2c(Nc3cc(CC(=O)Nc4cccc(F)c4)[nH]n3)ncnc2c1 [AZD1152-HQPA (Barasertib)]	1.95
O=C(/C=C/c1cccnc1)NCCCCC1CCN(C(=O)c2ccccc2)CC1 [FK-866]	0.20

System: HCC-1806
Experiment: as above
Assay type: cell-based
Conditions: Compound 1 in combination with the named second active agent, 72 h, mean of n = 3 experiments in triplicate
Excerpt: as §1, §2, §3

SMILES	Synergy score
O=C(NC(NC(=S)Nc1ccc(F)c([N+](=O)[O-])c1)C(Cl)(Cl)Cl)C(c1ccccc1)c1ccccc1 (centres unmarked) [CGK733]	1.51
COc1cc2nccc(Oc3ccc(NC(=O)C4(C(=O)Nc5ccc(F)cc5)CC4)cc3)c2cc1OC [XL184]	1.44
CCN(CCO)CCCOc1ccc2c(Nc3cc(CC(=O)Nc4cccc(F)c4)[nH]n3)ncnc2c1 [AZD1152-HQPA (Barasertib)]	1.32
O=C(/C=C/c1cccnc1)NCCCCC1CCN(C(=O)c2ccccc2)CC1 [FK-866]	0.00

System: HCC-1937
Experiment: as above
Assay type: cell-based
Conditions: Compound 1 in combination with the named second active agent, 72 h, mean of n = 3 experiments in triplicate
Excerpt: as §1, §2, §3

SMILES	Synergy score
O=C(NC(NC(=S)Nc1ccc(F)c([N+](=O)[O-])c1)C(Cl)(Cl)Cl)C(c1ccccc1)c1ccccc1 (centres unmarked) [CGK733]	1.48
COc1cc2nccc(Oc3ccc(NC(=O)C4(C(=O)Nc5ccc(F)cc5)CC4)cc3)c2cc1OC [XL184]	2.15
CCN(CCO)CCCOc1ccc2c(Nc3cc(CC(=O)Nc4cccc(F)c4)[nH]n3)ncnc2c1 [AZD1152-HQPA (Barasertib)]	2.29
O=C(/C=C/c1cccnc1)NCCCCC1CCN(C(=O)c2ccccc2)CC1 [FK-866]	0.60
CNC(=O)c1cc(Oc2ccc(NC(=O)Nc3ccc(Cl)c(C(F)(F)F)c3)cc2)ccn1 [Sorafenib]	2.10

System: HCC70
Experiment: as above
Assay type: cell-based
Conditions: Compound 1 in combination with second active agent; HCC-70; mean self-cross + 2σ threshold 3.45
Excerpt: as §1, §2, §3

SMILES	Synergy score
O=C(NC(NC(=S)Nc1ccc(F)c([N+](=O)[O-])c1)C(Cl)(Cl)Cl)C(c1ccccc1)c1ccccc1 (centres unmarked) [CGK733]	3.03
COc1cc2nccc(Oc3ccc(NC(=O)C4(C(=O)Nc5ccc(F)cc5)CC4)cc3)c2cc1OC [XL184]	1.47
O=C(/C=C/c1cccnc1)NCCCCC1CCN(C(=O)c2ccccc2)CC1 [FK-866]	0.30
CNC(=O)c1cc(Oc2ccc(NC(=O)Nc3ccc(Cl)c(C(F)(F)F)c3)cc2)ccn1 [Sorafenib]	2.51

System: Hs-578-T
Experiment: as above
Assay type: cell-based
Conditions: Compound 1 in combination with second active agent, mean self-cross + 2σ threshold 4.09
Excerpt: as §1, §2, §3

SMILES	Synergy score
O=C(NC(NC(=S)Nc1ccc(F)c([N+](=O)[O-])c1)C(Cl)(Cl)Cl)C(c1ccccc1)c1ccccc1 (centres unmarked) [CGK733]	2.45
COc1cc2nccc(Oc3ccc(NC(=O)C4(C(=O)Nc5ccc(F)cc5)CC4)cc3)c2cc1OC [XL184]	3.19
O=C(/C=C/c1cccnc1)NCCCCC1CCN(C(=O)c2ccccc2)CC1 [FK-866]	5.32
CNC(=O)c1cc(Oc2ccc(NC(=O)Nc3ccc(Cl)c(C(F)(F)F)c3)cc2)ccn1 [Sorafenib]	1.65

System: MCF7
Experiment: as above
Assay type: cell-based
Conditions: Compound 1 in combination with second active agent, mean self-cross + 2σ threshold 3.07
Excerpt: as §1, §2, §3

SMILES	Synergy score
O=C(NC(NC(=S)Nc1ccc(F)c([N+](=O)[O-])c1)C(Cl)(Cl)Cl)C(c1ccccc1)c1ccccc1 (centres unmarked) [CGK733]	0.66
COc1cc2nccc(Oc3ccc(NC(=O)C4(C(=O)Nc5ccc(F)cc5)CC4)cc3)c2cc1OC [XL184]	4.34
O=C(/C=C/c1cccnc1)NCCCCC1CCN(C(=O)c2ccccc2)CC1 [FK-866]	0.04
CNC(=O)c1cc(Oc2ccc(NC(=O)Nc3ccc(Cl)c(C(F)(F)F)c3)cc2)ccn1 [Sorafenib]	1.18

System: MDA-MB-157
Experiment: as above
Assay type: cell-based
Conditions: Compound 1 in combination with second active agent, mean self-cross + 2σ threshold 4.68
Excerpt: as §1, §2, §3

SMILES	Synergy score
O=C(NC(NC(=S)Nc1ccc(F)c([N+](=O)[O-])c1)C(Cl)(Cl)Cl)C(c1ccccc1)c1ccccc1 (centres unmarked) [CGK733]	1.88
CNC(=O)c1cc(Oc2ccc(NC(=O)Nc3ccc(Cl)c(C(F)(F)F)c3)cc2)ccn1 [Sorafenib]	0.56

System: MDA-MB-231
Experiment: as above
Assay type: cell-based
Conditions: Compound 1 in combination with second active agent, mean self-cross + 2σ threshold 2.61
Excerpt: as §1, §2, §3

SMILES	Synergy score
O=C(NC(NC(=S)Nc1ccc(F)c([N+](=O)[O-])c1)C(Cl)(Cl)Cl)C(c1ccccc1)c1ccccc1 (centres unmarked) [CGK733]	1.64
CNC(=O)c1cc(Oc2ccc(NC(=O)Nc3ccc(Cl)c(C(F)(F)F)c3)cc2)ccn1 [Sorafenib]	1.55

System: MDA-MB-436
Experiment: as above
Assay type: cell-based
Conditions: Compound 1 in combination with second active agent, mean self-cross + 2σ threshold 1.91
Excerpt: as §1, §2, §3

SMILES	Synergy score
O=C(NC(NC(=S)Nc1ccc(F)c([N+](=O)[O-])c1)C(Cl)(Cl)Cl)C(c1ccccc1)c1ccccc1 (centres unmarked) [CGK733]	0.84
COc1cc2nccc(Oc3ccc(NC(=O)C4(C(=O)Nc5ccc(F)cc5)CC4)cc3)c2cc1OC [XL184]	0.90
O=C(/C=C/c1cccnc1)NCCCCC1CCN(C(=O)c2ccccc2)CC1 [FK-866]	0.97

System: MDA-MB-468
Experiment: as above
Assay type: cell-based
Conditions: Compound 1 in combination with second active agent, mean self-cross + 2σ threshold 4.66
Excerpt: as §1, §2, §3

SMILES	Synergy score
COc1cc2nccc(Oc3ccc(NC(=O)C4(C(=O)Nc5ccc(F)cc5)CC4)cc3)c2cc1OC [XL184]	1.84
O=C(/C=C/c1cccnc1)NCCCCC1CCN(C(=O)c2ccccc2)CC1 [FK-866]	0.28
